The results in this text go back to ChEMBL document CHEMBL1201862, “PubChem BioAssay data set” (2004).

Assay [1] has as its target T1, Rac GTPase-activating protein 1 (Homo sapiens, UniProt Q9H0H5).
T1 sequence (Q9H0H5 whole entry): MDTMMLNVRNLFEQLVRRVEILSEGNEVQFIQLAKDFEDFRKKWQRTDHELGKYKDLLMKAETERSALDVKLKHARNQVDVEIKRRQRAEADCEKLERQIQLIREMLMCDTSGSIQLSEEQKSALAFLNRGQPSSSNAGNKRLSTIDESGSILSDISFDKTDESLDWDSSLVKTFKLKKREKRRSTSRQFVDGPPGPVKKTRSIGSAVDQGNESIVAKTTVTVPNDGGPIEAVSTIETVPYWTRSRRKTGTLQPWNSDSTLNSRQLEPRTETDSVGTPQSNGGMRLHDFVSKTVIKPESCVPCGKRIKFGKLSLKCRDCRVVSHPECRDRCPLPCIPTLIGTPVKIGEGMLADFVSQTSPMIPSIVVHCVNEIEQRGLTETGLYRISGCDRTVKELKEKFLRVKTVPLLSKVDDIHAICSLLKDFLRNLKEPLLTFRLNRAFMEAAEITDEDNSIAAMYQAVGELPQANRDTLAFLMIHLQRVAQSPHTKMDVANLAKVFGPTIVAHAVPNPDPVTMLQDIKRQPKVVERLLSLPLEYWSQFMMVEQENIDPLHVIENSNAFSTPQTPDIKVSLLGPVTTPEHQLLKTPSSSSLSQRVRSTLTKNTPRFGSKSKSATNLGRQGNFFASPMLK
Description: blockers of MgcRacGAP-driven Rac1 GTP hydrolysis – biochemical, ADP Hunter fluorescence, primary and confirmatory, confirmation (AID 624330). It counts as functional.

Assay [2] can be described thus: THP-1 cell cytotoxicity, dose response, cytotoxicity control for non-replicating M. tuberculosis project (AID 489025). It counts as functional.
The next assay is described as follows: cells. It counts as functional.
A further assay concerns the target Cytochrome P450 3A4 (Homo sapiens, UniProt P08684).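 Further: CYP3A4 tested as one member of a cytochrome P450 panel screen.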
For assay [3], the target named is T2, Ubiquitin-conjugating enzyme E2 N (Homo sapiens, UniProt P61088).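 Further: Dose-response confirmation in a TR-FRET assay detecting UBC13-driven polyubiquitin chain formation, inhibition measured.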
T2 sequence (P61088 whole entry): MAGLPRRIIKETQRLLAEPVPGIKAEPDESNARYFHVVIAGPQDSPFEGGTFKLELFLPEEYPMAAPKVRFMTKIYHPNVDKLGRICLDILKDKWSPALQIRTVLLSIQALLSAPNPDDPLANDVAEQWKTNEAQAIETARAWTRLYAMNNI
It counts as functional.

Assay [4] has as its target T3, Microphthalmia-associated transcription factor (Homo sapiens, UniProt O75030).
T3 sequence (O75030 whole entry): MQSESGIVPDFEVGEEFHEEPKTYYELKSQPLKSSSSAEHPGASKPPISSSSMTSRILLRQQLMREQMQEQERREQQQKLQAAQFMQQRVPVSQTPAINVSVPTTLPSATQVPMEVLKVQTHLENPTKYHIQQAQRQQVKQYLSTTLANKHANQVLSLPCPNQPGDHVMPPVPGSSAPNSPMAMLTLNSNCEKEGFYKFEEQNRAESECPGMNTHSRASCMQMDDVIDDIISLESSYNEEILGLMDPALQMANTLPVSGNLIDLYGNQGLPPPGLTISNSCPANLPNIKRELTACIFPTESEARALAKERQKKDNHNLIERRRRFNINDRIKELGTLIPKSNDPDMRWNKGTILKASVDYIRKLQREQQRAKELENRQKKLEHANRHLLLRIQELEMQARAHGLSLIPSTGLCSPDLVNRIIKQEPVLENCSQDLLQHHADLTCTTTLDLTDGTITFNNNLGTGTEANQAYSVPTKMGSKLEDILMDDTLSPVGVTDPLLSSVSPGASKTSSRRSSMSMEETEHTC
Description: reducers of TRPM1 reporter luminescence, concentration series – cell-based, SK-MEL-5, cherry-picked, set 3, MITF inhibitor project, dose response (AID 493073).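 Further: SK-MEL-5 melanoma cells with luciferase driven by the MITF target TRPM1 promoter.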 The class given is functional.

The nature of assay [5]: Luminescence Cell-Based Dose Confirmation HTS to Identify Activators of 5'UTR Stem-Loop Driven Alpha-Synuclein mRNA Translation in H4 Neuroglioblastoma Cells. [Related pubchem assays: 1829 (Project Summary), 1814 (Primary HTS)]. The class given is functional.
Assay [6] is described as follows: Luminescence Cell-Based Dose Response HTS to Identify Activators of Luciferase Translation or Activity in H4 […] Cells. [Related pubchem assays: 1829 (Project Summary), 1814 (Primary HTS)]. It counts as functional.
The subject of another assay is H4. As to the kind of experiment: Luminescence Cell-Based Dose Response HTS to Identify Activators of 5'UTR Stem-Loop Driven Prion Protein mRNA Translation in H4 Neuroglioblastoma Cells. [Related pubchem assays: 1829 (Project Summary), 1814 (Primary HTS)]. Particulars: Homo sapiens. The class given is functional.
A short description of assay [7]: NIH-3T3 fibroblast cytotoxicity, dose response, cytotoxicity control, cell-based, fluorescence, Alamar Blue, secondary assay (AID 2327).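 Further: NIH-3T3 mouse fibroblasts cultured with fluconazole at 8 µg/mL.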 The class given is functional.
A short description of assay [8]: fluconazole-exposed Candida albicans growth modulators – fluorescence, retest, confirmation (AID 2467). The class given is functional, cell-based.
Assay [9] addresses T4, Replicative DNA helicase DnaB (Mycobacterium tuberculosis, UniProt P9WMR3).
T4 sequence (P9WMR3 whole entry): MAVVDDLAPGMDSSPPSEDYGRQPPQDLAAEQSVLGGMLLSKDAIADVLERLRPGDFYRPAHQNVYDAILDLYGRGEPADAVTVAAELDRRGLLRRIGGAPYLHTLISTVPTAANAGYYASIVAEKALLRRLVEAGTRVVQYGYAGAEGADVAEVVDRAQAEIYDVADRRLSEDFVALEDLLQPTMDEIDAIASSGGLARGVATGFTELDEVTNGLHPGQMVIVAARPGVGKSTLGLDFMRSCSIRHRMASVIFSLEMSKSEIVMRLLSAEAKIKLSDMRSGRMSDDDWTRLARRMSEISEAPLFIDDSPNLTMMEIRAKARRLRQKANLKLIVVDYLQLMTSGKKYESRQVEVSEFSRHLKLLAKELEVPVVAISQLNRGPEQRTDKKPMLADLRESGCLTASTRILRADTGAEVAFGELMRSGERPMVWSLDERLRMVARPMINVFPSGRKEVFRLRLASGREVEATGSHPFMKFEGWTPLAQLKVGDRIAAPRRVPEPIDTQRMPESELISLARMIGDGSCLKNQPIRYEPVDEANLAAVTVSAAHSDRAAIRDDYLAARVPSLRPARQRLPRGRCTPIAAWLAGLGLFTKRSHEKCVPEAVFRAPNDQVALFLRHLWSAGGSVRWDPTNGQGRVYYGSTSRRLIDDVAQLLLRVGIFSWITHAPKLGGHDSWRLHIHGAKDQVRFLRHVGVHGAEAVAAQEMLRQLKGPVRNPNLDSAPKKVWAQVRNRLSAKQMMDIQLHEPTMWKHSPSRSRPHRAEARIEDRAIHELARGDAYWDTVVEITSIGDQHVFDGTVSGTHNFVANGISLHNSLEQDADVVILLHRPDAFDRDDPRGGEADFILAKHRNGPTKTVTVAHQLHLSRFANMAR
Description: DnaB intein splicing inhibitors, dose response, biochemical, cell-free fluorescence (AID 449749). It counts as functional.

For another assay, the target named is T5, Protein RecA (Mycobacterium tuberculosis, UniProt P9WHJ3).
T5 sequence (P9WHJ3 whole entry): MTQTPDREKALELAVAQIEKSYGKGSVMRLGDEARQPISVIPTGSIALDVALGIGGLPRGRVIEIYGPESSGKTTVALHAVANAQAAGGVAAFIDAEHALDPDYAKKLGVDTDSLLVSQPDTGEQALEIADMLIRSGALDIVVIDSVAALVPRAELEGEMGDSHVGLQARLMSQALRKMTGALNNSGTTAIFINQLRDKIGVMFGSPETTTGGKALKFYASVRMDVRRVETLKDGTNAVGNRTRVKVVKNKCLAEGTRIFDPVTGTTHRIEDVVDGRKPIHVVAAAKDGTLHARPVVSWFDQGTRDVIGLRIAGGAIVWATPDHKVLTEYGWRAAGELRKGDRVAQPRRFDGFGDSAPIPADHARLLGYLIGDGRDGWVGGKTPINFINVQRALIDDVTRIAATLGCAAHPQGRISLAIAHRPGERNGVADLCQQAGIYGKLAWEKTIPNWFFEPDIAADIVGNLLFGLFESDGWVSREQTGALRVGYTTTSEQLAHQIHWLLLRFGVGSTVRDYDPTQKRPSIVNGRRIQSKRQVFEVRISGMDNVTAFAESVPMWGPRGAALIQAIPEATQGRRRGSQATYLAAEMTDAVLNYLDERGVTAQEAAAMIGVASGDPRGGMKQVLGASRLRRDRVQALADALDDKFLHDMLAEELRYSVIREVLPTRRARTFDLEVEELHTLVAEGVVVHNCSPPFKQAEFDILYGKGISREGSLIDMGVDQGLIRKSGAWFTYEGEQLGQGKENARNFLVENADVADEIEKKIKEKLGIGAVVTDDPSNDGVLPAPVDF
Description: Fluorescence Cell-Free Homogeneous Dose Retest to Identify Inhibitors of RecA-Intein Splicing Activity. [Related pubchem assays (depositor defined):AID2097, AID2223, AID489010, AID492950]. The class given is functional.

The test system of the next assay is INS1. Description: INS-1E survival protection against cytokine death – cell-based, luminescence, retest, dose response (AID 449756).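 Further: cell death triggered by IL-1 beta plus TNF-alpha plus IFN-gamma mixture; protective hits raise ATP signal compared with cytokine alone wells.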 Particulars: Rattus norvegicus. The class given is functional.
Assay [10] can be described thus: luciferase reporter signal suppression in cells – H4 neuroglioma cells, luminescence, dose response (AID 1990). The class given is functional, cell-based. On the technique in general: In a reporter assay the amount or activity of a reporter protein is the signal.
Assay [11] in a line: Luminescence Cell-Based Dose Response HTS to Identify Inhibitors of 5'UTR Stem-Loop Driven Prion Protein mRNA Translation in H4 Neuroglioblastoma Cells. [Related pubchem assays: 1827 (Project Summary), 1813 (Primary HTS)]. The class given is functional.
Assay [12] is described as follows: alpha-synuclein stem-loop luciferase translation blockers – H4 neuroglioma cells, luminescence, confirmation (AID 1988). The class given is functional, cell-based.
Assay [13] in a line: reduction of Shn3 3'UTR-driven luciferase in osteoblasts – cell-based, Clone20 osteoblasts, firefly luciferase, cherry-picked, dose response (AID 624132).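 Further: firefly luciferase luminescence from reporter carrying the Shn3 3'UTR in osteoblasts.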 It counts as functional.
The nature of assay [14]: loss of viability in HepG2 cells – cell-based, CellTiter-Glo, cherry-picked, cytotoxicity control for Shn3 inhibitor project, dose response (AID 624134). The class given is functional. (In general: Cellular ATP, detected with luciferase, serves as a proxy for viable cell number.)
Assay [15] is described as follows: non-specific 3'UTR reporter inhibition in Clone20-Shn3RL – cell-based, Renilla luciferase, cherry-picked, counter-screen for Shn3 inhibitor project, dose response (AID 624133). It counts as functional. (A counterscreen serves to expose hits that act by an unwanted route or on another target.)

Active and inactive are the calls of the source.

Chain of Cytochrome P450 3A4 (P08684 whole entry): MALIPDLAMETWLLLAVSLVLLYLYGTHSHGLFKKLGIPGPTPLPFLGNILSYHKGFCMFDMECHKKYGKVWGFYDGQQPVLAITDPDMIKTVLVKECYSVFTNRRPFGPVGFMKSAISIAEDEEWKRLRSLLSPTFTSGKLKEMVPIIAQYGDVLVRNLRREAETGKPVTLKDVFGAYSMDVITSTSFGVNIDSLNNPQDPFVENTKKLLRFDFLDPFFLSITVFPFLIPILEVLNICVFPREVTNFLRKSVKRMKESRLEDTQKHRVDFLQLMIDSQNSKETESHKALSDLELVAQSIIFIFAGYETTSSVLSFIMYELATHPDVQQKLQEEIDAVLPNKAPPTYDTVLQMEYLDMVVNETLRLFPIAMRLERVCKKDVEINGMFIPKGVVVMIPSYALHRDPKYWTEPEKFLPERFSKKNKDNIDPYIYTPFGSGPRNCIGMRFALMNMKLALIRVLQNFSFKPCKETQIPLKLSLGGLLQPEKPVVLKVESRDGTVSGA

Regarding `Cc1ccc(CCNc2ccc3ccccc3c2)cn1`, the IC50 (commonly the concentration that gives 50% inhibition) in assay [1] is 105 µM (active).

`O=C(N/N=C/c1ccc(Br)s1)c1ccccc1[N+](=O)[O-]`: the CC50 (usually the concentration that lowers cell viability or growth by half) in assay [2] was > 40 µM (active). In addition, the IC50 in the assay “cells” was 49.2 µM (active). Moreover, on Cytochrome P450 3A4, the AC50 (usually the concentration giving half of the maximal activity seen) is 17.8 µM (inconclusive).

Take `COc1cc2nc(=S)[nH]c(Nc3ccc(NC(C)=O)cc3)c2cc1OC`: the IC50 in assay [3] was > 20 µM (inactive); in [1], 306 µM (active).

As for `O=C(O)c1ccc(C(=O)Nc2ccc(F)cc2)cc1`, the half-maximal activity concentration (AC50) in assay [4] is 19.8 µM (active).

In the case of `CC(C(=O)Nc1ccc(F)c(F)c1)N1CCN(C)CC1` (centres undefined), the IC50 in [1] was 83.1 µM (active).

Consider `COc1cc(/C=C/C(=O)OCC(=O)N(C)Cc2ccccc2)ccc1O`, for which, in assay [1], the IC50 is 35.2 µM (active).

As for `COc1cc(CNCc2ccccc2C(F)(F)F)cc(OC)c1`, the IC50 in assay [1] was 113 µM (active).

As to `COc1ccc2cc(OCC(=O)NNC(=O)Nc3ccc(C(C)=O)cc3)ccc2c1`, the EC50 (in general, the midpoint of the concentration-response curve) in assay [5] is 12.4 µM (active); in assay [6], 33.4 µM (active); with H4 it was 20.3 µM (active). In [1], the IC50 is 239 µM (active).

Turning to `CC1(C(=O)N/N=C/c2ccc([N+](=O)[O-])o2)CC1(Br)Br` (centres undefined), the EC50 is > 150 µM (inactive) in [7] and 2.46 µM (active) in [8]. The concentration at half-maximal activity (AC50) in assay [4] is 10.3 µM (active).

For `O=C(N/N=C/c1ccc([N+](=O)[O-])o1)c1ccc(O)cc1` [NIFUROXAZIDE], the half-maximal activity concentration (AC50) was 5.2 µM (active) in assay [4], > 380 µM (inactive) in [9] and 5.18 µM (active) in the assay on INS1. In addition, the EC50 at Protein RecA was > 380 µM (inactive).

Turning to `O=C(Nc1ccc(N2CCOCC2)cc1)c1cnsn1`, the concentration for a half-maximal effect (EC50) in assay [10] is 3.19 µM (active); in [11] it was 5.28 µM (active); in assay [12] it was 1.9 µM (active). Moreover, in assay [4], the concentration at half-maximal activity (AC50) is 3.05 µM (active).

Regarding `COc1ccc(CN2CCN(Cc3ccc(C(F)(F)F)cc3)CC2)cc1`, the IC50 in assay [1] was 99.6 µM (active).

In the case of `O=C(NCC1CCCCC1)C1(CC2CC(c3cccc(Br)c3)=NO2)CCNCC1` (centres undefined), the IC50 in [3] is > 20 µM (inactive). The AC50 in [4] is 18.1 µM (active).

Consider `COC(=O)[C@]1(C)CCC[C@@]2(C)C3CC[C@@]4(C)C[C@]3(CCC21)CC(=O)N4Cc1ccc(OC)cc1` (some centres undefined), for which the results for the half-maximal activity concentration (AC50) in assay [13], in assay [14] and in [15] were 8.16 µM (active), > 70 µM (inactive) and 10.6 µM (active), respectively.

On to `c1ccc(-c2cc3nc(NCC4CC4)nc(NCC4CCCCC4)c3s2)cc1`, for which the AC50 in assay [13] was 2.67 µM (active); in [14], 9.15 µM (active); in assay [15], 3.12 µM (active).
